# Assay: Western blot analysis for "B" compounds
# Format: cell-based
# Settings: read-out: Traditional Western Degradation Potency (DC50)
# Procedure, shortened: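 Target protein levels given as relative mean band intensity over GAPDH from scanned immunoblots. Lysates of treated cells in RIPA buffer, equalized by BCA, separated on 10% gels and transferred to PVDF.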
row,Structure (SMILES),DC50 [nM]
1,"O=C1CCC(N2C(=O)c3cc4c(cc3C2=O)CN(C(=O)[C@H]2CC[C@H](CN3CC(Oc5ccc([C@@H]6c7ccc(O)cc7CC[C@@H]6c6ccccc6)cc5)C3)CC2)C4)C(=O)N1 (stereo partly drawn) [Compound B281, 2-(2,6-dioxopiperidin-3-yl)-6-((1R,4r)-4-((3-(4-((1R,2S)-6-hydroxy-2-phenyl-1,2,3,4-tetrahydronaphthalen-1-yl)phenoxy)azetidin-1-yl)methyl)cyclohexane-1-carbonyl)-6,7-dihydropyrrolo[3,4-f]isoindole-1,3(2H,5H)-dione]",10 to 100
2,"O=C1CCC(N2C(=O)c3cc4c(cc3C2=O)CN(Cc2ccc(N3CCN(c5ccc([C@@H]6c7ccc(O)cc7CC[C@@H]6c6ccccc6)cc5)CC3)nc2)C4)C(=O)N1 (stereo partly drawn) [Compound B282, 2-(2,6-dioxopiperidin-3-yl)-6-((6-(4-(4-((1R,2S)-6-hydroxy-2-phenyl-1,2,3,4-tetrahydronaphthalen-1-yl)phenyl)piperazin-1-yl)pyridin-3-yl)methyl)-6,7-dihydropyrrolo[3,4-f]isoindole-1,3(2H,5H)-dione]",> 100
3,"CC1(C(=O)N2CCC(N3Cc4cc5c(cc4C3)C(=O)N(C3CCC(=O)NC3=O)C5=O)CC2)CCN(c2ccc([C@@H]3c4ccc(O)cc4CC[C@@H]3c3ccccc3)cc2)CC1 (stereo partly drawn) [Compound B283, 2-(2,6-dioxopiperidin-3-yl)-6-(1-(1-(4-((1R,2S)-6-hydroxy-2-phenyl-1,2,3,4-tetrahydronaphthalen-1-yl)phenyl)-4-methylpiperidine-4-carbonyl)piperidin-4-yl)-6,7-dihydropyrrolo[3,4-f]isoindole-1,3(2H,5H)-dione]",> 100
4,"O=C1CCC(N2C(=O)c3cc4c(cc3C2=O)CN(CC(=O)N2CCC(Oc3ccc([C@@H]5c6ccc(O)cc6CC[C@@H]5c5ccccc5)cc3)CC2)C4)C(=O)N1 (stereo partly drawn) [Compound B284, 2-(2,6-dioxopiperidin-3-yl)-6-(2-(4-(4-((1R,2S)-6-hydroxy-2-phenyl-1,2,3,4-tetrahydronaphthalen-1-yl)phenoxy)piperidin-1-yl)-2-oxoethyl)-6,7-dihydropyrrolo[3,4-f]isoindole-1,3(2H,5H)-dione]",> 100
5,"O=C1CCC(N2C(=O)c3cc4c(cc3C2=O)CN(C2CCN(C(=O)[C@H]3C[C@H](Oc5ccc([C@@H]6c7ccc(O)cc7CC[C@@H]6c6ccccc6)cc5)C3)CC2)C4)C(=O)N1 (stereo partly drawn) [Compound B285, 2-(2,6-dioxopiperidin-3-yl)-6-(1-((1R,3r)-3-(4-((1R,2S)-6-hydroxy-2-phenyl-1,2,3,4-tetrahydronaphthalen-1-yl)phenoxy)cyclobutane-1-carbonyl)piperidin-4-yl)-6,7-dihydropyrrolo[3,4-f]isoindole-1,3(2H,5H)-dione]",10 to 100
6,"O=C1CCC(N2Cc3cc4c(cc3C2=O)CN(C(=O)C2CCC(CN3CC(Oc5ccc([C@@H]6c7ccc(O)cc7CC[C@@H]6c6ccccc6)cc5)C3)CC2)C4)C(=O)N1 (stereo partly drawn) [Compound B286, 3-(6-((1R,4r)-4-((3-(4-((1R,2S)-6-hydroxy-2-phenyl-1,2,3,4-tetrahydronaphthalen-1-yl)phenoxy)azetidin-1-yl)methyl)cyclohexane-1-carbonyl)-1-oxo-3,5,6,7-tetrahydropyrrolo[3,4-f]isoindol-2(1H)-yl)piperidine-2,6-dione]",> 100
7,"O=C1CCC(N2C(=O)c3cc4c(cc3C2=O)CN(CC2CCC3(CC2)CCN(C(=O)c2ccc([C@@H]5c6ccc(O)cc6CC[C@@H]5c5ccccc5)cc2)CC3)C4)C(=O)N1 (stereo partly drawn) [Compound B287, 2-(2,6-dioxopiperidin-3-yl)-6-((3-(4-((1R,2S)-6-hydroxy-2-phenyl-1,2,3,4-tetrahydronaphthalen-1-yl)benzoyl)-3-azaspiro[5.5]undecan-9-yl)methyl)-6,7-dihydropyrrolo[3,4-f]isoindole-1,3(2H,5H)-dione]",> 100
